Structures can show the parent of a compound that is named as a salt.
target: ROCK2 (Homo sapiens, UniProt O75116); test: ROCK2 kinase inhibition assay (LABCHIP 3000 Reader, FITC peptide substrate);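 further: rho kinase reaction read by separating phosphorylated from unphosphorylated peptide on chip, with inhibition of kinase activity computed per concentration across a dose-response series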
Sequence (O75116 whole entry, species assumed): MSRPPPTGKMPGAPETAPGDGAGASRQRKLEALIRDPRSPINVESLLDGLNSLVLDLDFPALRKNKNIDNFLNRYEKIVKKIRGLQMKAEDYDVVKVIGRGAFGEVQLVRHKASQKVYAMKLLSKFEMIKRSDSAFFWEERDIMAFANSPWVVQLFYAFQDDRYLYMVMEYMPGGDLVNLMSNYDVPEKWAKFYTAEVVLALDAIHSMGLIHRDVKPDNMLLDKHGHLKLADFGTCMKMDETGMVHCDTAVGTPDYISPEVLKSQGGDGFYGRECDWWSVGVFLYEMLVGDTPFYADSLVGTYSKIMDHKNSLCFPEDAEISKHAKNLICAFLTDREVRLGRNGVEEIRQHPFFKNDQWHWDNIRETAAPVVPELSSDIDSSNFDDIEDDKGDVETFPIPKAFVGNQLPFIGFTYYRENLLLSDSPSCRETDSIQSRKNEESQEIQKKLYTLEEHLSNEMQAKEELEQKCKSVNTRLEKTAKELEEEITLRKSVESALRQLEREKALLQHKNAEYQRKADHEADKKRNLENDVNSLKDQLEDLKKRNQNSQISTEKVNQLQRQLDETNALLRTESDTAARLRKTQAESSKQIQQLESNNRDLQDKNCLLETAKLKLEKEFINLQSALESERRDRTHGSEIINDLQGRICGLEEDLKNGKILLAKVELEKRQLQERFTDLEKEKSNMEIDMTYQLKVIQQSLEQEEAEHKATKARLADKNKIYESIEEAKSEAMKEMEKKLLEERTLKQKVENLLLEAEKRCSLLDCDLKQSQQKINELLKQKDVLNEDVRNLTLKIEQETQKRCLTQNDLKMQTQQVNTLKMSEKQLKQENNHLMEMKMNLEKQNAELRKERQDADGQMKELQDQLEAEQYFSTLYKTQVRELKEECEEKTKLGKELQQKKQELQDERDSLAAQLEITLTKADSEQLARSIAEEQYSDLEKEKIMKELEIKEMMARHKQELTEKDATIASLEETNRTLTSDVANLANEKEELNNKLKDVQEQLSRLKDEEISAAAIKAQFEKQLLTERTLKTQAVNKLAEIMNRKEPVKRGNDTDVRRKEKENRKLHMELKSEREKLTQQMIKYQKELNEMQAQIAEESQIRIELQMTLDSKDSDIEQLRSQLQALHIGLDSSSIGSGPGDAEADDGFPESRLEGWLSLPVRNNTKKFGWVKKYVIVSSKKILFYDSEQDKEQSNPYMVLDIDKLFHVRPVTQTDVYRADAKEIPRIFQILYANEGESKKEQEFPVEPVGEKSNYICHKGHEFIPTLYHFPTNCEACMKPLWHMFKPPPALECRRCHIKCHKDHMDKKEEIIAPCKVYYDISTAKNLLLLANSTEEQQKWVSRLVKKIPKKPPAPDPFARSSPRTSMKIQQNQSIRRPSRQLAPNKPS

| Compound | IC50 [µM] |
| --- | --- |
| N#Cc1cc(C(=O)N[C@H]2CC3(C2)C[C@H](Oc2ncccc2C(N)=O)C3)cc(-c2c[nH]nc2C(F)(F)F)c1 (stereo partly drawn) [Example 193, 2-(((aR)-6-(3-cyano-5-(3-(trifluoromethyl)-1H-pyrazol-4-yl)benzamido)spiro[3.3]heptan-2-yl)oxy)nicotinamide, trifluoroacetate] | 0.005 to 0.05 |
| COc1cccc(C(N)=O)c1OC1CC2(CC(NC(=O)c3cnn4c(C5CC5)c(OCC(C)(C)O)ccc34)C2)C1 (stereo not drawn) [Example 208, N-(6-(2-carbamoyl-6-methoxyphenoxy)spiro[3.3]heptan-2-yl)-7-cyclopropyl-6-(2-hydroxy-2-methylpropoxy)pyrazolo[1,5-a]pyridine-3-carboxamide] | 0.25 to 2.5 |
| COc1cccc(C(N)=O)c1OC1CC2(CC(NC(=O)c3cnn4cc(OCC(C)(C)O)ccc34)C2)C1 (stereo not drawn) [Example 209, N-(6-(2-carbamoyl-6-methoxyphenoxy)spiro[3.3]heptan-2-yl)-6-(2-hydroxy-2-methylpropoxy)pyrazolo[1,5-a]pyridine-3-carboxamide] | 0.25 to 2.5 |
| COc1ccc(C(N)=O)c(OC2CC3(CC(NC(=O)c4cnn5cc(OCC(C)(C)O)ccc45)C3)C2)c1 (stereo not drawn) [Example 210, N-(6-(2-carbamoyl-5-methoxyphenoxy)spiro[3.3]heptan-2-yl)-6-(2-hydroxy-2-methylpropoxy)pyrazolo[1,5-a]pyridine-3-carboxamide] | 0.005 to 0.05 |
| COc1ccc(C(N)=O)c(OC2CC3(CC(NC(=O)c4cnn5c(C6CC6)c(OCC(C)(C)O)ccc45)C3)C2)c1 (stereo not drawn) [Example 211, N-(6-(2-carbamoyl-5-methoxyphenoxy)spiro[3.3]heptan-2-yl)-7-cyclopropyl-6-(2-hydroxy-2-methylpropoxy)pyrazolo[1,5-a]pyridine-3-carboxamide] | < 0.005 |
| COc1ccc(OC2CC3(CC(NC(=O)c4cnn5cc(OCC(C)(C)O)ccc45)C3)C2)c(C(N)=O)c1 (stereo not drawn) [Example 212, N-(6-(2-carbamoyl-4-methoxyphenoxy)spiro[3.3]heptan-2-yl)-6-(2-hydroxy-2-methylpropoxy)pyrazolo[1,5-a]pyridine-3-carboxamide] | 0.25 to 2.5 |
| COc1ccc(OC2CC3(CC(NC(=O)c4cnn5c(C6CC6)c(OCC(C)(C)O)ccc45)C3)C2)c(C(N)=O)c1 (stereo not drawn) [Example 213, N-(6-(2-carbamoyl-4-methoxyphenoxy)spiro[3.3]heptan-2-yl)-7-cyclopropyl-6-(2-hydroxy-2-methylpropoxy)pyrazolo[1,5-a]pyridine-3-carboxamide] | 0.005 to 0.05 |
| Cc1cccc(C(N)=O)c1OC1CC2(CC(NC(=O)c3cnn4c(C5CC5)c(OCC(C)(C)O)ccc34)C2)C1 (stereo not drawn) [Example 214, N-(6-(2-carbamoyl-6-methylphenoxy)spiro[3.3]heptan-2-yl)-7-cyclopropyl-6-(2-hydroxy-2-methylpropoxy)pyrazolo[1,5-a]pyridine-3-carboxamide] | 0.25 to 2.5 |
| Cc1ccc(C(N)=O)c(OC2CC3(CC(NC(=O)c4cnn5cc(OCC(C)(C)O)ccc45)C3)C2)c1 (stereo not drawn) [Example 215, N-(6-(2-carbamoyl-5-methylphenoxy)spiro[3.3]heptan-2-yl)-6-(2-hydroxy-2-methylpropoxy)pyrazolo[1,5-a]pyridine-3-carboxamide] | 0.005 to 0.05 |
| Cc1ccc(OC2CC3(CC(NC(=O)c4cnn5c(C6CC6)c(OCC(C)(C)O)ccc45)C3)C2)c(C(N)=O)c1 (stereo not drawn) [Example 216, N-(6-(2-carbamoyl-4-methylphenoxy)spiro[3.3]heptan-2-yl)-7-cyclopropyl-6-(2-hydroxy-2-methylpropoxy)pyrazolo[1,5-a]pyridine-3-carboxamide] | 0.005 to 0.05 |
| Cc1ccc(C(N)=O)c(OC2CC3(CC(NC(=O)c4cnn5c(C6CC6)c(OCC(C)(C)O)ccc45)C3)C2)c1 (stereo not drawn) [Example 217, N-(6-(2-carbamoyl-5-methylphenoxy)spiro[3.3]heptan-2-yl)-7-cyclopropyl-6-(2-hydroxy-2-methylpropoxy)pyrazolo[1,5-a]pyridine-3-carboxamide] | < 0.005 |
| Cc1ccc(OC2CC3(CC(NC(=O)c4cnn5cc(OCC(C)(C)O)ccc45)C3)C2)c(C(N)=O)c1 (stereo not drawn) [Example 218, N-(6-(2-carbamoyl-4-methylphenoxy)spiro[3.3]heptan-2-yl)-6-(2-hydroxy-2-methylpropoxy)pyrazolo[1,5-a]pyridine-3-carboxamide] | 0.25 to 2.5 |
| CC(C)(O)COc1ccc2c(C(=O)NC3CC4(C3)CC(Oc3cc(OC(F)F)ccc3C(N)=O)C4)cnn2c1 (stereo not drawn) [Example 219, N-(6-(2-carbamoyl-5-(difluoromethoxy)phenoxy)spiro[3.3]heptan-2-yl)-6-(2-hydroxy-2-methylpropoxy)pyrazolo[1,5-a]pyridine-3-carboxamide] | 0.005 to 0.05 |
| CC(C)(O)COc1ccc2c(C(=O)NC3CC4(C3)CC(Oc3cc(Cl)ccc3C(N)=O)C4)cnn2c1 (stereo not drawn) [Example 220, N-(6-(2-carbamoyl-5-chlorophenoxy)spiro[3.3]heptan-2-yl)-6-(2-hydroxy-2-methylpropoxy)pyrazolo[1,5-a]pyridine-3-carboxamide] | 0.005 to 0.05 |
| CC(C)(O)COc1ccc2c(C(=O)NC3CC4(C3)CC(Oc3cc(-n5ccnc5)ccc3C(N)=O)C4)cnn2c1 (stereo not drawn) [Example 221] | 0.05 to 0.25 |
| CC(C)(O)COc1ccc2c(C(=O)NC3CC4(C3)CC(Oc3cc(-c5ncccn5)ccc3C(N)=O)C4)cnn2c1 (stereo not drawn) [Example 222, N-(6-(2-carbamoyl-5-(pyrimidin-2-yl)phenoxy)spiro[3.3]heptan-2-yl)-6-(2-hydroxy-2-methylpropoxy)pyrazolo[1,5-a]pyridine-3-carboxamide] | 0.005 to 0.05 |

Now from value to compound:

| IC50 [µM] | Compound |
| --- | --- |
| < 0.005 | Cc1nc2cc(-c3cc(C#N)cc(C(=O)N[C@H]4CC5(C4)C[C@H](Oc4ncccc4C(N)=O)C5)c3)ccc2s1 (stereo partly drawn) [Example 186, 2-(((aR)-6-(3-cyano-5-(2-methylbenzo[d]thiazol-5-yl)benzamido)spiro[3.3]heptan-2-yl)oxy)nicotinamide, trifluoroacetate] |
| < 0.005 | CC(C)Cn1cc(-c2cc(C#N)cc(C(=O)N[C@H]3CC4(C3)C[C@H](Oc3ncccc3C(N)=O)C4)c2)cn1 (stereo partly drawn) [Example 187, 2-((aR)-6-(3-cyano-5-(1-isobutyl-1H-pyrazol-4-yl)benzamido)spiro [3.3]heptan-2-yl)oxy)nicotinamide, trifluoroacetate] |
| 0.25 to 2.5 | Cc1nc(-c2ccc(C(F)(F)F)cc2)sc1-c1cc(C#N)cc(C(=O)N[C@H]2CC3(C2)C[C@H](Oc2ncccc2C(N)=O)C3)c1 (stereo partly drawn) [Example 188, 2-((aR)-6-(3-cyano-5-(4-methyl-2-(4-(trifluoromethyl)phenyl)thiazol-5-yl)benzamido)spiro[3.3]heptan-2-yl)oxy)nicotinamide, trifluoroacetate] |
| < 0.005 | N#Cc1cc(C(=O)N[C@H]2CC3(C2)C[C@H](Oc2ncccc2C(N)=O)C3)cc(-c2ccc3c(c2)CCC(=O)N3)c1 (stereo partly drawn) [Example 189, 2-((aR)-6-(3-cyano-5-(2-oxo-1,2,3,4-tetrahydroquinolin-6-yl)benzamido)spiro[3.3]heptan-2-yl)oxy)nicotinamide, trifluoroacetate] |
| 0.005 to 0.05 | Cc1noc(C)c1-c1cc(C#N)cc(C(=O)N[C@H]2CC3(C2)C[C@H](Oc2ncccc2C(N)=O)C3)c1 (stereo partly drawn) [Example 190, 2-((aR)-6-(3-cyano-5-(3,5-dimethylisoxazol-4-yl)benzamido)spiro[3.3]heptan-2-yl)oxy)nicotinamide, trifluoroacetate] |
| 0.005 to 0.05 | N#Cc1cc(C(=O)N[C@H]2CC3(C2)C[C@H](Oc2ncccc2C(N)=O)C3)cc(-c2ccc(C#N)nc2)c1 (stereo partly drawn) [Example 191, 2-(((aR)-6-(3-cyano-5-(6-cyanopyridin-3-yl)benzamido)spiro[3.3]heptan-2-yl)oxy)nicotinamide, trifluoroacetate] |
| 0.005 to 0.05 | Cn1ccc(-c2cc(C#N)cc(C(=O)N[C@H]3CC4(C3)C[C@H](Oc3ncccc3C(N)=O)C4)c2)cc1=O (stereo partly drawn) [Example 192, 2-(((aR)-6-(3-cyano-5-(1-methyl-2-oxo-1,2-dihydropyridin-4-yl)benzamido)spiro[3.3]heptan-2-yl)oxy)nicotinamide, trifluoroacetate] |
| 0.005 to 0.05 | Cn1cccc(-c2cc(C#N)cc(C(=O)N[C@H]3CC4(C3)C[C@H](Oc3ncccc3C(N)=O)C4)c2)c1=O (stereo partly drawn) [Example 194, 2-(((aR)-6-(3-cyano-5-(1-methyl-2-oxo-1,2-dihydropyridin-3-yl)benzamido)spiro[3.3]heptan-2-yl)oxy)nicotinamide, trifluoroacetate] |
| < 0.005 | CS(=O)(=O)c1ccccc1-c1cc(C#N)cc(C(=O)N[C@H]2CC3(C2)C[C@H](Oc2ncccc2C(N)=O)C3)c1 (stereo partly drawn) [Example 196, 2-(((aR)-6-(5-cyano-2′-(methylsulfonyl)-[1,1′-biphenyl]-3-ylcarboxamido)spiro[3.3]heptan-2-yl)oxy)nicotinamide] |
| 0.005 to 0.05 | Cn1nccc1-c1cc(C#N)cc(C(=O)N[C@H]2CC3(C2)C[C@H](Oc2ncccc2C(N)=O)C3)c1 (stereo partly drawn) [Example 197, 2-(((aR)-6-(3-cyano-5-(1-methyl-1H-pyrazol-5-yl)benzamido)spiro[3.3]heptan-2-yl)oxy)nicotinamide] |
| < 0.005 | N#Cc1cc(C(=O)N[C@H]2CC3(C2)C[C@H](Oc2ncccc2C(N)=O)C3)cc(-c2cnn(C(F)F)c2)c1 (stereo partly drawn) [Example 198, 2-(((aR)-6-(3-cyano-5-(1-(difluoromethyl)-1H-pyrazol-4-yl)benzamido)spiro[3.3]heptan-2-yl)oxy)nicotinamide] |
| 0.005 to 0.05 | [H][C@]1(Oc2ncccc2C(N)=O)C[C@@]2(C[C@H](NC(=O)c3cc(C#N)cc(-c4nc5c(s4)CNCC5)c3)C2)C1 (stereo partly drawn) [Example 199, 2-(((aR)-6-(3-cyano-5-(4,5,6,7-tetrahydrothiazolo[5,4-c]pyridin-2-yl)benzamido)spiro[3.3]heptan-2-yl)oxy)nicotinamide, 2TFA] |
| 0.005 to 0.05 | CN1CCc2nc(-c3cc(C#N)cc(C(=O)N[C@H]4CC5(C4)C[C@H](Oc4ncccc4C(N)=O)C5)c3)sc2C1 (stereo partly drawn) [Example 200, 2-(((aR)-6-(3-cyano-5-(5-methyl-4,5,6,7-tetrahydrothiazolo[5,4-c]pyridin-2-yl)benzamido)spiro[3.3]heptan-2-yl)oxy)nicotinamide, bis-trifluoroacetate] |
| 0.005 to 0.05 | Cc1nc(-c2cc(C#N)cc(C(=O)N[C@H]3CC4(C3)C[C@H](Oc3ncccc3C(N)=O)C4)c2)cs1 (stereo partly drawn) [Example 203, 2-(((aR)-6-(3-cyano-5-(2-methylthiazol-4-yl)benzamido)spiro[3.3]heptan-2-yl)oxy)nicotinamide, trifluoroacetate] |

Reference: patent publication US10829501B2 (BRISTOL-MYERS SQUIBB COMPANY, priority 2016, dated 2020)
